Test [1] is described as follows: (§1) Inhibitory activity against Carboxypeptidase A (CPA).
The nature of test [2]: as §1. This is another data set of the same source.

The molecule `O=C(O)[C@H](Cc1ccccc1)[C@H]1CO1` (single isomer, unassigned) displayed a K inact in test [1] of 1.59 min⁻¹. Besides, the Ki in test [2] was found to be 86 µM.

On to `O=C(O)[C@@H](Cc1ccccc1)[C@H]1CO1`, for which the K inact in test [1] amounted to 1.11 min⁻¹. Also, in test [2], the affinity, expressed as Ki, was 155 µM.

In test [1], `O=C(O)[C@H](Cc1ccccc1)[C@H]1CS1` yielded a K inact of 1.31 min⁻¹. The molecule further returned a Ki in test [2] of 94 µM.

By Ki is commonly meant a dissociation constant, usually derived from enzyme kinetics or from competition with a known ligand.

The record behind these values is ChEMBL document CHEMBL1128780, “Inactivation of carboxypeptidase a by 2-benzyl-3,4-epithiobutanoic acid” (Bioorg Med Chem Lett, 1995).
